# Reference: PubChem BioAssay (NCI)
# Values joined by “and” are separate entries in the source; they are usually repeats but may differ in a detail not shown here. Equal values may be shown once.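 Briefly, cells in 96-well plates were exposed to five compound concentrations for 48 h, and endpoints were estimated by linear interpolation. Abbreviation: GI50, concentration required for 50% inhibition of growth. TGI: total growth inhibition.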 Where a SMILES comes first, the peptide text is derived from it. [ ]: non-standard residue; d: D form. The star is where a group is joined. ξ: configuration not given here. X3 = COc1ccc(C(N*)c2ccc(OC)cc2)cc1; NMeF = CN[C@@H](Cc1ccccc1)C(=O)O; NMeD = CN[C@@H](CC(=O)O)C(=O)O; NMeV = CN[C@H](C(=O)O)C(C)C; ξNMeV = CNC(C(=O)O)C(C)C; Boc = CC(C)(C)OC(=O)*; ξNMeA = CNC(C)C(=O)O; ξV = CC(C)C(N)C(=O)O
# Tests used:
# Test in all cases: NCI anticancer screen, dose series, 48 h
# A498 renal = test system: A498 renal
# ACHN renal = test system: ACHN renal
# COLO 205 colon = test system: COLO 205 colon
# HCC-2998 colon = test system: HCC-2998 colon
# HCT-116 colon = test system: HCT-116 colon
# MALME-3M melanoma = test system: MALME-3M melanoma
# MDA-MB-435 = test system: MDA-MB-435
# SNB-19 CNS = test system: SNB-19 CNS
# UACC-62 melanoma = test system: UACC-62 melanoma
# UO-31 renal = test system: UO-31 renal
Structure (SMILES),GI50 (A498 renal),TGI (A498 renal),GI50 (ACHN renal),TGI (ACHN renal),GI50 (COLO 205 colon),TGI (COLO 205 colon),GI50 (HCC-2998 colon),TGI (HCC-2998 colon),GI50 (HCT-116 colon),TGI (HCT-116 colon),GI50 (MALME-3M melanoma),TGI (MALME-3M melanoma),TGI (MDA-MB-435),GI50 (SNB-19 CNS),TGI (SNB-19 CNS),GI50 (UACC-62 melanoma),TGI (UACC-62 melanoma),GI50 (UO-31 renal),TGI (UO-31 renal),GI50 (MDA-MB-435)
COc1ccc(C(NC(=O)C[C@@H](C(=O)N(C)C(C)C(=O)O)N(C)C(=O)[C@@H]2CCCN2C(=O)[C@H](C(C)C)N(C)C(=O)C(C(C)C)N(C)C(=O)[C@H](Cc2ccccc2)N(C)C(=O)C(NC(=O)OC(C)(C)C)C(C)C)c2ccc(OC)cc2)cc1 (some centres undefined) (Boc-[ξV][NMeF][ξNMeV][NMeV]P[NMeD](X3)[ξNMeA]-OH),20.1 µM,> 37.5 µM and 35.7 µM,10.6 µM,37.5 µM and 22.5 µM,17.2 µM,32.1 µM and 30.9 µM,19.3 µM,14.8 µM and 36 µM,17.3 µM,36.2 µM and 34.6 µM,20.5 µM,37.5 µM and 37.9 µM,20 µM,17.5 µM,37.5 µM and 33 µM,0.803 µM,12.5 µM and 20.9 µM,17.6 µM,37.5 µM and 31.5 µM,–
CC1(C)OC1COc1c2occc2cc2ccc(=O)oc12 (centres undefined),–,> 100 µM,–,> 100 µM,–,> 100 µM,–,> 100 µM,–,> 100 µM,–,> 100 µM,> 100 µM,–,> 100 µM,–,> 100 µM,–,> 100 µM,–
Cc1cc(I)cc(CN(CCCN(C)C)C(C)C)c1O,21 µM,37.8 µM,17.3 µM,31.6 µM,14.7 µM,27.8 µM,16.5 µM,30.6 µM,12.6 µM,25.1 µM,21.6 µM,40.8 µM,35.9 µM,18.4 µM,42.5 µM,15.2 µM,33.7 µM,14.5 µM,32.6 µM,17.3 µM
COc1cccc(-c2nc(-c3ccc(NC(=O)OC(C)C)cc3)[nH]c2-c2ccnc(Br)c2)c1,1.2 µM,6.29 µM,2.7 µM,> 100 µM,3.26 µM,> 100 µM,2.71 µM,> 100 µM,2.68 µM,> 100 µM,2.23 µM,7 µM,> 100 µM,3.19 µM,> 100 µM,1.98 µM,4.87 µM,2.51 µM,> 100 µM,3.11 µM
CCOP(=O)(OCC)C(F)(F)c1ccc(CC(NC(=O)OC(C)(C)C)C(=O)O)cc1 (centres undefined),–,> 10 µM,–,> 10 µM,–,> 10 µM,–,> 10 µM,–,> 10 µM,–,> 10 µM,> 10 µM,–,> 10 µM,–,> 10 µM,–,> 10 µM,–
O=C1NC(=NC(CO)Cc2ccccc2)S/C1=C\c1ccc2ncccc2c1 (centres undefined),> 15.2 µM and 1.96 µM,> 25 µM and 7.67 µM,11.2 µM and 3.55 µM,> 25 µM,9.23 µM and 1.86 µM,> 25 µM,13.9 µM and 8.02 µM,> 25 µM,9.89 µM and 1.13 µM,> 25 µM,12 µM and 6.19 µM,> 25 µM,> 25 µM,> 25 µM and 4.34 µM,> 25 µM,14.6 µM and 5.27 µM,> 25 µM,16.4 µM and 5.82 µM,> 25 µM and 16.8 µM,6.21 µM and 2.54 µM
CC1(COc2ccc3c(c2)ncn3-c2ccc3cccc(N4CCC(N)CC4)c3n2)COC1,5.01 µM and 2.03 µM,10.7 µM and 4.27 µM,2.61 µM and 2.24 µM,> 10 µM,1.09 µM and 1.02 µM,2.44 µM and 2.86 µM,2.7 µM and 2.25 µM,7.51 µM and 7.85 µM,0.894 µM and 1.03 µM,5.35 µM and > 10 µM,3.23 µM and 1.86 µM,6.46 µM and 3.74 µM,10.5 µM and > 10 µM,4.35 µM and 3.36 µM,13.2 µM and > 10 µM,16.7 µM and > 10 µM,34.4 µM and > 10 µM,1.78 µM and 0.822 µM,5.12 µM and 7.4 µM,3.06 µM and 3.25 µM
